Here are results for one substance from patent US20250263457A1, “Pharmaceutical Composition for Preventing and Treating Liver Disease Comprising Novel Peptide” (Pusan National University Industry-University Cooperation …, priority 2024, published 2025).

Test [1] deals with CD44. The experiment in a line: Western blot of CD44ICD in nuclear proteins of human pHSCs (CD44 cleavage). The conditions noted are these: 40 ng/ml, 24 hours, vs control (FIG. 3A). The format is cell-based. As for the experimental part: Specifically, pHSCs were treated with peptide YJ (40 ng/ml) for 0, 6, 12, or 24 hours, and then nuclear proteins were isolated. Western blotting was performed on the isolated nuclear proteins to confirm the expression of CD44 and CD44ICD. The nuclear proteins were obtained by a nuclear protein fractionation method.
At this time, the primary antibodies were used with anti-CD44 antibody (Abcam, ab157107), anti-CD44ICD antibody (Cosmo Bio, KAL-KO601), and anti-LAMIN B1 antibody (Abcam, ab16048), and the secondary antibody was used with Goat anti-Rabbit IgG antibody (HRP conjugate) (Enzo, ADI-SAB-300-J). In addition, human pHSCs treated with PBS were used as a control group. The CD44 and CD44ICD expression results were normalized to the expression level of LAMIN B1, which was an internal control group, and expressed as mean±SEM values obtained from the same experiment repeated three times.
(In general: Immunoblotting shows a protein as a band on a membrane.)

Test [2] relates to alcohol-related liver disease mouse model. The experiment in a line: Liver size/weight and serum AST/ALT in alcohol-related liver disease mouse model. The format is in vivo, C57BL/6 male mice. Here is the method:
(§1) To prepare alcohol-related liver disease mice, 8-week-old C57BL/6 male mice were fed with a Lieber DeCarli liquid diet (Dyets, 710260) containing 5% EtOH for 9 weeks, and then injected intraperitoneally with a vehicle (PBS) every other day along with feeding liquid diet for additional 3 weeks. As a control group for the EtOH diet, mice fed with a pair Lieber DeCarli liquid diet (Dyets, 710027) having the same total calories as the EtOH diet were used (FIG. 4A).
Specifically, 20 μl of mouse serum was mixed with 100 μl of a GOT buffer or GPT buffer, and then reacted at 37° C. Thereafter, the mixture was added with a 0.0198% 2,4-dinitrophenylhydrazine colorimetric solution (100 μl), and then further reacted at room temperature for 20 minutes. Thereafter, the mixture was added with 0.4 N NaOH (1 ml) to terminate the reaction, and absorbance (505 nm) was measured. The absorbance was expressed in international units per liter (IU/L).
(§2) The alcohol-related liver disease mouse model established by the method of Example 5.1 was administered vehicle (PBS) or peptide YJ (3.3 μg/kg) intraperitoneally every other day for three weeks, and then blood was collected and liver tissue was extracted to confirm the liver disease treatment effect of peptide YJ.
The weight and degree of tissue damage of the liver tissue extracted from the experimental mice of Example 5.3 were measured in the same manner as in Example 5.2.1.

Test [3] shares this test system. Description: Fibrosis markers and collagen accumulation in liver tissue of mouse model. The conditions noted are these: 3.3 μg/kg i.p. every other day for three weeks, EtOH diet group, vs vehicle. The format is in vivo, C57BL/6 male mice.
Text: as §1
In most chronic liver diseases, severe inflammatory responses were accompanied by fibrosis. Accordingly, the degree of fibrosis in the liver tissue of the alcohol-related liver disease mouse model established by the method of Example 5.1 in the present disclosure was confirmed through the expression of fibrosis markers using RT-qPCR and Western blot. In addition, the accumulation of collagen in the liver tissue and the expression of α-SMA were confirmed. In addition, the concentration of collagen in the liver tissue was confirmed through Sirius red staining, and the expression of α-SMA was confirmed through immunohistochemical staining. At this time, RT-qPCR and Western blot were performed in the same manner as in Example 2, and immunohistochemical staining (IHC) was performed in the same manner as in Example 5.2.3. In IHC, an anti-α-SMA antibody was used as the primary antibody.
After deparaffinization and hydration of the liver tissue section slides prepared in the same manner as in Example 5.2.3, the section slides were treated with 0.1% Sirius red F3B (Sigma-Aldrich) and 0.1% Fast Green (Sigma-Aldrich) solutions containing saturated picric acid (Sigma-Aldrich) and reacted for 20 minutes. After the staining reaction was completed, the section slides were dehydrated, mounted, and observed under a microscope. […] In addition, it was confirmed that the expression of α-SMA in the liver tissue in the EtOH diet group increased compared to the control group (pair) (FIG. 5D).
as §2
The degree of fibrosis in the liver tissue extracted from the experimental mice of Example 5.3 was confirmed in the same manner as in Example 5.2.4.

Test [4] has as its system human pHSCs. Description: Cell survival of human pHSCs by MTS assay. The format is cell-based. The conditions noted are these: 0, 20, 40, or 100 ng/ml; 24 and 48 hours; vs PBS control (FIG. 2B). As for the experimental part:
100 μl of human pHSCs (5×10^4 cells/ml) were seeded into 96 wells and cultured overnight. The cells were treated with peptide YJ at a concentration of 0, 20, 40, or 100 ng/ml and then further cultured. After 24 and 48 hours, cell survival for each cell was confirmed through MTS assay (Cell titer proliferation assay, G3580, Promega) (FIG. 2A). At this time, human pHSCs treated with PBS were used as a control group (vehicle).

Where [5] appears, read: 3.3 μg/kg i.p. every other day for three weeks, EtOH diet group, vs vehicle (FIG. 6C).
Setting [6] is: RT-qPCR, Western blot (FIGS. 7A, 7B).

With “peptide YJ: TSG-6 fragment: core domain RSGKYKLTYAEAKA plus C-terminal extension VCEFEGGHLATYKQLEAARKIGFHVCAAGWMAK (SEQ ID NO: 9); TSG-6 mimetic (RSGKYKLTYAEAKAVCEFEGGHLATYKQLEAARKIGFHVCAAGWMAK; peptide 4)”, the “nuclear expression and accumulation of CD44ICD” value in test [1] is on record as “significantly reduced”. Also, in test [2] (setting [5]), the “serum ALT level” value is “decreased” and the “serum AST level” value is listed as “decreased”. The “size and weight of the liver tissue” value in test [2] (3.3 μg/kg intraperitoneally every other day for three weeks, between groups (FIGS. 6A, 6B)) is given as “did not show statistically significant differences”. In addition, in test [3] (setting [6]), the “mRNA and protein expression of collagen1α1 in the liver tissue” value is “significantly reduced”; the “mRNA and protein expression of vimentin in the liver tissue” value is on record as “significantly reduced”; the “mRNA and protein expression of α-SMA in the liver tissue” value is recorded as “significantly reduced”. Also, the “collagen accumulation in the liver tissue” value in test [3] (hydroxyproline assay, Sirius red staining, IHC (α-SMA) (FIGS. 7C, 7D)) is on record as “significantly reduced”. For the same substance, the “cell survival and proliferation” value in test [4] is “no changes in cell survival and proliferation were observed”.
